Measurements: patent publication US11529340B2 (priority 2016, dated 2022)
Entries after “also recorded” stand apart in the source; their conditions may differ. Where two headings read alike, the source gives them in different places.

What was measured:
mice [1] = experiment: Oral gavage antinociception (% MPE) in mice; type: in vivo; conditions: for time of peak antinociceptive effect: oral gavage; for % MPE: oral, 5 mg/kg
Description: Animals are restrained by the scruff and held upright (vertically) to maintain a straight line from the mouth to the esophagus. Prior to dosing, the distance from the oral cavity to the caudal point of the sternum is gauged with the gavage needle. Using a bulb-tipped gastric gavage needle attached to a 1 mL syringe, the needle is passed along the roof of the animal's mouth and into the esophagus, stopping at the pre-measured distance. The drug is slowly injected and the needle removed. Drugs are administered in a volume of 10 mL/kg.

[2] = test system: HEK-293 cells transfected with opioid receptors (mu, delta, kappa homomers; mu-delta, mu-kappa, kappa-delta heteromers); experiment: Intracellular calcium release assay (FLIPR); type: cell-based; conditions: HEK-293 with chimeric Δ6-Gqi4-myr, opioid receptor homomers and heteromers
Description: The target compounds were tested for agonist activity using an intracellular calcium release assay. Briefly, HEK-293 cells were transfected with a chimeric Δ6-Gqi4-myr protein employed to measure intracellular Ca^+2 ion release upon receptor activation. Cells stably expressing the chimeric protein were selected from transiently transfected cells in zeocin-containing medium (DMEM+10% fetal bovine serum+1% penicillin/streptomycin+[…] zeocin). Opioid receptors were transiently transfected using different combinations of DNA for heteromers (mu-delta, mu-kappa, kappa-delta) or for singly expressing homomers (mu, delta, kappa). Intracellular calcium release was measured using a FLIPR calcium kit (Molecular Devices) in a FlexStation3 apparatus. For each compound, concentration-response profiles were established by measuring the fluorescence for 90 seconds after addition of the compound and determining the peak effect (maximum-minimum). A concentration-response curve was plotted for the change in Relative Fluorescence Units (ΔRFU) vs. concentration. The calcium mobilization of the antagonist NTI and partial agonist OMI were studied.

mice [3] = experiment: Antinociceptive potency (% MPE) after i.t. or i.c.v. administration; type: in vivo
Description: OMI (4) or BOMI (6) were administered via either i.t. or i.c.v. routes and percent maximum possible antinociception (% MPE) determined at 5 or 10 min post-treatment, respectively.

mice [4] = experiment: Antinociceptive tolerance, day 1 vs day 2 % MPE; type: in vivo; conditions: i.t.
Description: Eighty percent effective doses of OMI (4) or BOMI (6) were administered either i.c.v. or i.t. once on day 1 and again on day 2 and the % MPE determined on both days.

mice [5] = experiment: Naloxone withdrawal jumping protocol (dependence); type: in vivo; conditions: for dependence: naloxone-precipitated
Description: Morphine, OMI and BOMI were tested for dependence using the naloxone withdrawal jumping protocol (Marshall, I. et al., Br. J. Pharmacol. 1969, 37, 505P-506P; and El-kadi, A. O. et al., General Pharmacology: The Vascular System 1994, 25, 1505-1510). On day one the ED80 dose was injected 3 times per day 4 hours apart using the s.c. route of administration. On day 2 two times ED80 and day 3 and 4 with four times the ED80 were injected at the same times used on day one. On the fifth day each animal received a bolus of the top dose followed three hours later by a single dose of naloxone s.c. (10 or 50 mg/kg) and placed in individual circular Plexiglas observation chambers (6.5″×9″). […] At 10 mg/kg and 50 mg/kg naloxone precipitated withdrawal in the morphine-treated animals with a mean 91.5 jumps and 99.3 jumps, respectively. The average number of jumps for both OMI and BOMI after both doses of naloxone was 1 jump.

mice [6] = experiment: In vivo antagonism of OMI and BOMI antinociception by opioid antagonists; conditions: agonist administered intrathecally and intracerebroventricularly
Description: FIGS. 1a-1d show antagonism studies of OMI and BOMI (6) in vivo from Example 2.
OMI (Portoghese, P. S., et al., J. Med. Chem. 1990, 33, 1714-20) and BOMI were tested in vivo. […] Oral gavage of OMI and (6) produced the peak antinociceptive effect at 30 minutes; further they were taken in vivo studies in mice and challenged by antagonists such as NTI, norBNI and β-FNA. The results are depicted in FIGS. 1a-1d. […] Therefore, it was concluded that OMI and (6) both are MOR-DOR heteromer-selective agonists.

[7] = test system: CFA-induced hyperalgesia in mice; experiment: Hargreaves assay, CFA-induced inflammatory hyperalgesia; type: in vivo; conditions: for ED50: Mus musculus
mice [8] = conditions: cited from earlier work
[9] = test system: MORs and DORs in CFA-inflamed mice; experiment: Antagonism of Lo-OMI anti-hyperalgesia by opioid antagonists (Hargreaves, CFA); type: in vivo; conditions: intraplantar and subcutaneous; β-FNA 24 hours before, others co-administered
[10] = test system: thermal nociceptive responses in mice; experiment: Hot water tail flick test, intrathecal injection, naive mice; type: in vivo
Description: Subjects were given an intrathecal injection of loperamide, OMI, or combination, and post-drug response were analyzed as a % of maximum possible effect, which was used to generate dose-response curves.
Thermal nociception was measured either using a warm water tail flick test or using the Hargreaves hindpaw method as described previously (Hargreaves, K. et al., Pain 32: 77-88, 1988). Briefly, animals were placed on a heated glass floor (30° C.) and a small plastic box restricted their movement. After allowing the animals to acclimate to the testing environment for a minimum of 15 minutes, a radiant heat lamp was shone on the left hindpaw until the animal withdrew the paw. Paw withdrawal latencies (PWLs) were measured by an IITC plantar stimulator analgesia meter, and a cutoff time of 20 seconds was used to prevent tissue damage. An average of 3-5 PWLs were taken, with a minimum of 30 seconds between tests.
Data Analysis: The ED50, in nanomoles with 95% confidence limits, of all agonists and combinations were calculated using the graded dose-response curve method of Tallarida and Murray (Tallarida, R. J. and Murray, R. B., Manual of pharmacological calculations with computer programs, pp. 26-31, Springer-Verlag, NY, 1987). […] Isobolographic analyses were performed using the numerical method (Tallarida, Pain 49: 93-97, 1992; Ossipov et al., Anesthesiology 86:1-9 1997). […]

[11] = test system: light-driven mEPSC frequency in spinal cord slices from Nav1.8-ChR2 mice; experiment: Spinal cord slice electrophysiology: inhibition of 470 nm light-evoked mEPSCs; type: cell-based; conditions: increasing concentrations superfused on slice
[12] = test system: thermal nociceptive responses in naive mice; experiment: Hargreaves assay, naive mice; type: in vivo
mice [13] = conditions: intrathecal; cited from earlier work
[14] = test system: SNI-induced allodynia in mice; experiment: Spared nerve injury (SNI)-induced mechanical allodynia, electronic von Frey; conditions: subcutaneous
[15] = naloxone s.c. 10 mg/kg after escalating s.c. dosing
[16] = naloxone s.c. 50 mg/kg after escalating s.c. dosing
[17] = sc, subcutaneous (systemic), CFA-inflamed, read-out: ED50 (anti-hyperalgesia)
[18] = systemic, CFA-inflamed, loperamide + BOMI co-administered, read-out: ED50 of the drug with the other drug (loperamide or BOMI) present
[19] = intraplantar, CFA-inflamed, loperamide + BOMI co-administered
[20] = Mus musculus, sc, 0.75 h, subcutaneous, CFA-naive, tested 45 minutes later, read-out: ED50
[21] = intraplantar, naive, tested 15 minutes later
[22] = topical solution on inflamed hindpaw, CFA

Question: With `CN1CC[C@]23c4c5ccc(O)c4O[C@H]2c2c(c4ccccc4n2Cc2ccccc2)C[C@@]3(O)C1C5` [BOMI (6), (4bS,8aS,14bR)-14-benzyl-7-methyl-5,6,7,8,8a,9,14,14b-octahydro-4,8-methanobenzofuro[2,3-a]pyrido[4,3-b]carbazole-1,8a-diol] as the compound, how does the “time of peak antinociceptive effect” value (mice [1]) read?
Answer: 30 min

Question: And the “% MPE” value (mice [1]; 20 min)?
Answer: 38.3 ± 10.4 % MPE

Question: And the “% MPE” value (mice [1]; 30 min)?
Answer: 19.6 ± 4.8 % MPE

Question: What about the “% MPE” value (mice [1]; 60 min) of the same compound?
Answer: 42.8 ± 6.2 % MPE

Question: What about the “% MPE” value (mice [1]; 120 min) of the same compound?
Answer: 38.4 ± 8.4 % MPE

Question: And the calcium mobilization profile ([2]; listed as 6)?
Answer: predominantly MOR-DOR heteromer-selective

Question: What about the calcium mobilization profile ([2]; listed as BOMI) of the same compound?
Answer: mixed, stimulation of MOR most active

Question: What about the “potency relative to parent compound OMI (4)” value (mice [3]; i.c.v., % MPE at 10 min) of the same compound?
Answer: three times more potent

Question: And the “potency relative to parent compound OMI (4)” value (mice [3]; i.t., % MPE at 5 min)?
Answer: 20 times

Question: And the antinociceptive tolerance (mice [4])?
Answer: neither agent injected i.t. produced antinociceptive tolerance

Question: And the antinociceptive tolerance (mice [4]; listed as 6)?
Answer: did not produce tolerance

Question: And the “number of jumps in 10 minutes (mean)” value (mice [5]; [15])?
Answer: 1 jumps

Question: And the “number of jumps in 10 minutes (mean)” value (mice [5]; [16])?
Answer: 1 jumps

Question: And the dependence (mice [5]; listed as 6)?
Answer: neither OMI nor (6) produced dependence

Question: What about the dependence (mice [5]; listed as BOMI) of the same compound?
Answer: did not create any dependence

Question: And the “antagonism by β-FNA” value (mice [6])?
Answer: antagonized by β-FNA; also recorded: antagonism of (6) by β-FNA was more significant

Question: And the ED50 [7, 17]?
Answer: 0.08 mg/kg

Question: What about the ED50 [7, 18] of the same compound?
Answer: 0.003 mg/kg

Question: What about the “ED50 (anti-hyperalgesia)” value ([7]; intraplantar, CFA-inflamed) of the same compound?
Answer: 0.34 nmol

Question: What about the “ED50 of the drug when the other drug (loperamide or BOMI) is also present” value [7, 19] of the same compound?
Answer: 0.02 nmol

Question: What does the source list for `C[C@]12N[C@H](Cc3ccccc31)c1ccccc12` [MK801]?
Answer: ED50 for reduction in rotarod performance (mice [8]; intrathecal): 11 nmol; reduction in rotarod performance (mice [8]; intrathecal): 80%

Question: Which results are given for `Oc1ccc2c3c1O[C@H]1c4[nH]c5ccccc5c4C[C@@]4(O)[C@@H](C2)N(CC2CC2)CC[C@]314` [NTI, naltrindole]?
Answer: calcium mobilization profile [2]: devoid of any calcium mobilization; also recorded: did not show calcium mobilization in any cell line tested; reversal of the anti-hyperalgesic effects of Lo-OMI [9]: significantly reversed the anti-hyperalgesic effects of Lo-OMI in a dose-dependent manner

Question: What does the source list for `CN1CC[C@]23c4c5ccc(O)c4O[C@H]2c2[nH]c4ccccc4c2C[C@@]3(O)[C@H]1C5` [OMI (4), oxymorphindole]?
Answer: time of peak antinociceptive effect (mice [1]): 30 min; % MPE (mice [1]; 20 min): 38.0 ± 8.4 % MPE; % MPE (mice [1]; 30 min): 29.5 ± 4.5 % MPE; % MPE (mice [1]; 60 min): 38.5 ± 10.7 % MPE; calcium mobilization profile [2]: demonstrated a profile of MOR-DOR heteromer selectivity; calcium mobilization profile ([2]; listed as OMI): selective mobilization in the MOR-DOR co-expressing cell line; antinociceptive tolerance (mice [4]): neither agent injected i.t. produced antinociceptive tolerance; antinociceptive tolerance (mice [4]; listed as OMI): did not produce tolerance; number of jumps in 10 minutes (mean) (mice [5]; [15]): 1 jumps; number of jumps in 10 minutes (mean) (mice [5]; [16]): 1 jumps; dependence (mice [5]; listed as OMI): neither OMI nor (6) produced dependence; also recorded: did not create any dependence; antagonism by β-FNA (mice [6]): antagonized by β-FNA; ED50 [10]: 3.52 nmol; inhibition of light-driven mEPSC frequency [11]: inhibited mEPSC frequency in a concentration-dependent manner; ED50 [12, 20]: 5.13 mg/kg; ED50 [12, 21]: 33.7 nmol; ED50 [7, 17]: 1.12 mg/kg; ED50 (anti-hyperalgesia) ([7]; intraplantar, CFA-inflamed): 12.3 nmol; ED50 (anti-hyperalgesia) [7, 22]: 166 µM; interaction with the MOR agonist morphine (mice [13]): synergized with the MOR agonist morphine; time of peak anti-allodynia post-injection [14]: 1 h

Question: With `Clc1cccc(Cl)c1N=C1NCCN1` [clonidine] as the compound, how does the “impairment of rotarod performance / motor function” value (mice [8]; literature or earlier results, route as stated) read?
Answer: dose-dependently and fully impairs rotarod performance

Question: With `CN(C)C(=O)C(CCN1CCC(O)(c2ccc(Cl)cc2)CC1)(c1ccccc1)c1ccccc1` [loperamide] as the compound, how does the ED50 [10] read?
Answer: 5.44 nmol

Question: What about the “inhibition of light-driven mEPSC frequency” value [11] of the same compound?
Answer: inhibited mEPSC frequency in a concentration-dependent manner

Question: And the ED50 [12, 20]?
Answer: 12.4 mg/kg

Question: What about the ED50 [12, 21] of the same compound?
Answer: 57.2 nmol

Question: And the ED50 [7, 17]?
Answer: 2.42 mg/kg

Question: And the ED50 [7, 18]?
Answer: 0.06 mg/kg

Question: And the “ED50 (anti-hyperalgesia)” value ([7]; intraplantar, CFA-inflamed)?
Answer: 6.37 nmol

Question: And the “ED50 of the drug when the other drug (loperamide or BOMI) is also present” value [7, 19]?
Answer: 0.5 nmol

Question: What about the “ED50 (anti-hyperalgesia)” value [7, 22] of the same compound?
Answer: 227 µM

Question: And the “time of peak anti-allodynia post-injection” value [14]?
Answer: 1 h

Question: Which results are given for `CN1CC[C@]23c4c5ccc(O)c4O[C@H]2[C@@H](O)C=C[C@H]3[C@H]1C5` [morphine]?
Answer: number of jumps in 10 minutes (mean) (mice [5]; [15]): 91.5 jumps; number of jumps in 10 minutes (mean) (mice [5]; [16]): 99.3 jumps

Question: Which “reversal of the anti-hyperalgesic effects of Lo-OMI” value [9] does the source give for `C=CC[N+]1(C)CC[C@]23c4c5ccc(O)c4O[C@H]2C(=O)CC[C@@]3(O)[C@H]1C5` (stereo partly drawn) [naloxone methiodide] here?
Answer: significantly reversed the anti-hyperalgesic effects of Lo-OMI in a dose-dependent manner; also recorded: completely ablated the behavioral anti-hyperalgesia

Question: With `COC(=O)/C=C/C(=O)N[C@@H]1CC[C@@]2(O)[C@H]3Cc4ccc(O)c5c4[C@@]2(CCN3CC2CC2)[C@H]1O5` [β-FNA, beta-funaltrexamine] as the compound, how does the “reversal of the anti-hyperalgesic effects of Lo-OMI” value [9] read?
Answer: significantly reversed the anti-hyperalgesic effects of Lo-OMI in a dose-dependent manner
